# Key:
# [1] = system: BT-474 breast cancer cell; experiment: Sulphorhodamine-B (SRB) cell proliferation assay; assay type: cell-based; conditions: Homo sapiens, BT-474, 120 h; HER2-expressing cell; cultured for five days; SRB staining
# Procedure: (§1) BT-474 breast cancer cell (purchased from ATCC) was used as a human HER2-expressing cell and MDA-MB-231 breast cancer cell (purchased from ATCC) was used as a HER2-nonexpressing cell. These cells were seeded into a 96-multiwell plate (BT-474: 3.0 x 10^4 cells/well, MDA-MB-231: 1.5 x 10^4 cells/well), and cultured overnight in a carbon dioxide gas incubator (5% CO2, 37°C). A 4-fold dilution series of a mitochondrial respiratory chain complex-inhibiting compound (complex I: rotenone) was added starting from a final concentration of 10 µmol/L in 10 steps, and further cultured for five days. At the end of culture, the broth containing rotenone was removed, the cells were washed with a phosphoric acid buffer, immobilized with 5% trichloroacetic acid solution, and added with 0.4% (W/V) sulphorhodamine-B (SRB) dye solution (dissolved in 1% acetic acid) for staining the cellular protein. Subsequently, the SRB dye solution was removed from the plate and the plate was washed with a 1% acetic acid solution. Then, 100 µL 10 mM Tris buffer solution was added for extraction and dye dissolution, and absorbance at an absorption wavelength of 550 nm was measured to determine the cellular quantity as a protein amount (Journal of National Cancer Institute. Vol. 82, pp. 1107-1112, 1990). […]
# [2] = system: MDA-MB-231 breast cancer cell; experiment: Sulphorhodamine-B (SRB) cell proliferation assay; assay type: cell-based; conditions: Homo sapiens, MDA-MB-231, 120 h; HER2-nonexpressing cell; cultured for five days; SRB staining
# Procedure: as §1
# [3] = system: phosphorylated AMPK; experiment: Western blotting of phosphorylated AMPK in BT-474 cells; assay type: cell-based, human; conditions: Example 6, 1, 0.333, 0.111, 0.033 and 0.011 µmol/L, two hours
# Procedure: (§2) Human HER2-expressing human breast cancer cell line BT-474 (purchased from American Tissue Culture Collection (ATCC)) was seeded into a 24-multiwell plate (BT-474: 1.2 x 10^5 cells/well), and cultured overnight in a carbon dioxide gas incubator (5% CO2, 37°C). Mitochondrial respiratory chain complex 1-inhibiting compound rotenone (Wako Pure Chemical Industries) was added in 5 steps at final concentrations of 1, 0.333, 0.111, 0.033 and 0.011 µmol/L while continuing culture. Two hours later, the broth was removed and the cells were lysed with an SDS sample buffer (200 µL). Then, this cell lysate was used to perform western blotting analysis. Specifically, this cell lysate (8 µL) was separated by an SDS-PAGE method (gel concentration: 7.5-15%) (Analytical Biochemistry, No. 166, pp. 368-379, 1987) and transferred to a nitrocellulose membrane (BioRad). Then, an antibody specific to phosphorylated HER2 (Cell signaling technology, Code# 2244), an AMPK antibody specific to AMPK (Cell signaling technology, Code# 2535) and an anti-phosphorylated AMPK antibody specific to phosphorylated AMPK (Cell signaling technology, Code# 2532) were used to detect the antibody by chemiluminescent detection with an ECL system (Amersham) to quantify an amount of phosphorylated protein with LAS-1000 plus image analysis device (FUJIFILM).
# [4] = system: MAPK; experiment: Western blotting of phosphorylated MAPK in BT-474 cells; assay type: cell-based, human; conditions: Example 2, 4-fold dilution series from 1 µmol/L in 5 steps, 2 hours
# Procedure: (§3) Human HER2-expressing human breast cancer cell line BT-474 (purchased from American Tissue Culture Collection (ATCC)) was seeded into a 24-multiwell plate (BT-474: 1.2 x 10^5 cells/well), and cultured overnight in a carbon dioxide gas incubator (5% CO2, 37°C). A 4-fold dilution series of a mitochondrial respiratory chain complex inhibiting compound (complex I: rotenone, complex III: antimycin, complex V: oligomycin: Wako Pure Chemical Industries) was added starting from a final concentration of 1 µmol/L in 5 steps while continuing culture. After 2 hours, the broth was removed, and the cells were lysed with an SDS sample buffer (200 µL). Western blotting analysis was performed as follows. Specifically, this cell lysate (8 µL) was separated by an SDS-PAGE method (gel concentration: 7.5-15%) (Analytical Biochemistry, No. 166, pp. 368-379, 1987), and transferred to a nitrocellulose membrane (BioRad). Then, an antibody specific to phosphorylated HER2 (Cell signaling technology, Code# 2244), an anti-phosphorylated Akt antibody specific to downstream antiapoptotic signal transducing molecule Akt (Cell signaling technology, Code# 9271) and an anti-phosphorylated MAPK antibody specific to downstream proliferation signal transducing molecule MAPK (Cell signaling technology, Code# 9101) were used to detect the antibody with an ECL system (Amersham) to quantify the amount of phosphorylated protein by an image analysis.
# (§4) Human HER2-expressing human cancer cell line BT-474 (purchased from ATCC) was seeded into a 24-multiwell plate (1.2 x 10^5 cells/well) and cultured overnight in a carbon dioxide gas incubator (20% O2, 5% CO2, 37°C). A 3-fold dilution series of metformin that activates AMPK (The Journal of Biological Chemistry, Vol. 279, No. 42, pp. 43940-43951, 2004) was added starting from a final concentration of 15 mmol/L in 5 steps while continuing culture. Two hours later, the broth was removed and the cells were lysed with an SDS sample buffer (200 µL). This cell lysate (8 µL) was separated by an SDS-PAGE method (gel concentration: 7.5-15%) (Analytical Biochemistry, No. 166, pp. 368-379, 1987). Then, western blotting analysis was performed in the same manner as in Example 1 to quantify phosphorylated HER2, phosphorylated Akt and phosphorylated MAPK.
# [5] = system: Akt; experiment: Western blotting of phosphorylated Akt in BT-474 cells; assay type: cell-based, human; conditions: Example 2, 4-fold dilution series from 1 µmol/L in 5 steps, 2 hours
# Procedure: as §3, §4
# [6] = system: AMPK; experiment: Western blotting of AMPK protein amount in BT-474 cells; assay type: cell-based, human; conditions: Example 6, 1, 0.333, 0.111, 0.033 and 0.011 µmol/L, two hours
# Procedure: as §2
# [7] = system: EGFR; experiment: Western blotting of phosphorylated EGFR in A431 cells; assay type: cell-based, human; conditions: Example 9, 4-fold dilution series from 1 µmol/L in 5 steps, 2 hours
# Procedure: Human EGFR-expressing human epidermal cancer cell line A431 (purchased from American Tissue Culture Collection (ATCC)) was seeded into a 24-multiwell plate (A431:6x10^4 cells/well), and cultured overnight in a carbon dioxide gas incubator (5% CO2, 37°C). A 4-fold dilution series of a mitochondria complex-inhibiting compound (complex I: rotenone, Wako Pure Chemical Industries) was added in 5 steps starting from a final concentration of 1 µmol/L while continuing culture. The broth was removed 2 hours later, and cells were lysed with an SDS sample buffer (200 µL). Western blotting analysis was conducted as follows. Specifically, this cell lysate (8 µL) was separated by an SDS-PAGE method (gel concentration: 7.5-15%) (Analytical Biochemistry, No. 166, pp. 368-379, 1987) and transferred onto a nitrocellulose membrane (BioRad). Subsequently, an antibody specific to phosphorylated EGFR (Cell signaling technology, Code# 2232) was used to detect an antibody with an ECL system (Amersham) to quantify the amount of phosphorylated protein by an image analysis.
# [8] = system: HER2; experiment: Western blotting of phosphorylated HER2 in BT-474 cells; assay type: cell-based, human
# Procedure: as §3, §4, §2
# Human HER2-expressing human breast cancer cell line BT-474 (purchased from American Tissue Culture Collection (ATCC)) was seeded into a 24-multiwell plate (BT-474: 1.2 x 10^5 cells/well) and cultured overnight in a carbon dioxide gas incubator (5% CO2, 37°C). […]
structure (smiles),measurement,setting,value
C=C(C)[C@H]1Cc2c(ccc3c2O[C@@H]2COc4cc(OC)c(OC)cc4[C@@H]2C3=O)O1 [rotenone],IC50,[1],4 nM
same,IC50,[2],500 nM
same,amount of AMPK phosphorylation,[3],increased dose-dependently
same,MAPK phosphorylation,[4],suppressions of Akt and MAPK phosphorylations were also confirmed
same,Akt phosphorylation,[5],suppressions of Akt and MAPK phosphorylations were also confirmed
same,amount of AMPK protein itself,[6],A quantitative change was not observed
same,EGFR phosphorylation,[7],No suppression of EGFR phosphorylation was observed
same,HER2 phosphorylation,"[8]; Example 2, 4-fold dilution series from 1 µmol/L in 5 steps, 2 hours",suppression of HER2 phosphorylation was confirmed
same,HER2 phosphorylation,"[8]; Example 6, 1, 0.333, 0.111, 0.033 and 0.011 µmol/L, two hours",decreased dose-dependently
